{
  "source": "patent US20100291622A1",
  "about": "“NOVEL COMPOUND, PROCESS FOR PRODUCTION THEREOF, AND USE THEREOF” (SCHOOL JURIDICAL PERSON KITASATO INSTITUTE, priority 2007, published 2010)",
  "key": {"[1]": {"biological_target": "T1, undecaprenyl diphosphate synthase derived from Staphylococcus aureus (Staphylococcus aureus, UniProt P60477)", "T1 construct": "made in house; host or cells: E. coli BL21 (DE3), T7 promoter, IPTG induction; unpurified cell-free extract (100,000 x g supernatant)", "T1 sequence (P60477 whole entry)": "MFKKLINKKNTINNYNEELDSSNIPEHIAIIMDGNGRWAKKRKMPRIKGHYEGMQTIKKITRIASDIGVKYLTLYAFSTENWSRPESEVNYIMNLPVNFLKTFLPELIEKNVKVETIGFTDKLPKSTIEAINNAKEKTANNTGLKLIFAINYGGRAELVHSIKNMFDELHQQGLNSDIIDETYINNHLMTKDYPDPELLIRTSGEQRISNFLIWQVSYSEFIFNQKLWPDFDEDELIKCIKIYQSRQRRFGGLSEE", "assay": "Inhibitory effect on undecaprenyl diphosphate synthase (phosphate release, Amplex Red fluorescence)", "type": "biochemical", "protocol": "(1) Inhibitory effect on the undecaprenyl diphosphate synthase derived from Staphylococcus aureus\nThe test on the activity of undecaprenyl diphosphate synthase was determined following a method of LI et al. (J. Biomol. Screen., vol. 8, pages 712-715, 2003) with partial changes. […]\nThe measurement of the activity of undecaprenyl diphosphate synthase was conducted as follows: the FKI-3368 substance was added to a buffer solution B (100 mM Tris-HCl buffer solution (pH 7.5), 50 mM potassium chloride, 0.5 mM magnesium chloride, 0.5 μM farnesyl diphosphate, 3.5 μM isopentenyl diphosphate, […] inorganic pyrophosphatase) so that 90 μL in total volume might be respectively put in each well of a 96-well microplate. […] In order to quantify the released phosphate, 100 μL of a solution C (0.5M Tris-HCl buffer solution (pH 8.8), 1.5 mM inosine, 50 μM Amplex™ Red, 0.02 U nucleoside phosphorylase, 1 U peroxidase, 0.4 U xanthine oxidase) was added to each well and after reaction was performed at room temperature for 40 minutes, fluorescence intensity was measured under the conditions of an excitation wavelength at 544 nm and a measurement wavelength at 590 nm.\nThe addition amount of […] and the intensity of fluorescence (F.I.) measured in a reaction liquid without the addition thereof were applied to the following expression and the inhibition % was calculated: […]"}, "[2]": {"assay": "Solubility in solvents", "type": "physicochemical"}, "[3]": {"test_system": "Mucor racemosus IFO 4581", "assay": "MIC by agar dilution", "type": "cell-based", "details": "IFO4581; Mucor racemosus IFO 4581, 27° C. for 40 hours", "protocol": "(§1) The measurement of the minimal inhibitory concentration (MIC) for various microbes of the FKI-3368-I substance of the present invention was performed by the following method. An ethanol solution of the FKI-3368-I substance was subjected to 2-fold dilution from the concentration of 1,000 μg/ml to prepare 14 stage diluted solutions (1,000 μg/ml, 500 μg/ml, 250 μg/ml, 125 μg/ml, 62.5 μg/ml, 31.3 μg/ml, 15.6 μg/ml, 7.8 μg/ml, 3.9 μg/ml, 2 μg/ml, 1 μg/ml, 0.5 μg/ml, 0.24 μg/ml and 0.12 μg/ml). After 1 ml each of the respective diluted solutions was placed on a round shape dish (90 mm (diameter)×20 mm, produced by IWAKI Co., Ltd.), 9 ml of a culture medium-N for sensitivity disc (for bacteria; produced by Nissui Pharmaceutical Co., Ltd.) or Sabouraud glucose agar (for yeast or mold; produced by Nihon Pharmaceutical Co., Ltd.) was added thereto to form plate media. The test microbes had been incubated in advance in Muller Hinton culture media (for bacteria; produced by Nissui Pharmaceutical Co., Ltd.) or potato dextrose agar media (for yeast or mold; produced by Nissui Pharmaceutical Co., Ltd.). On the very date when the test was performed, the resultant microbe suspensions were diluted with an Muller Hinton culture medium or a potato dextrose culture medium and a platinum loop thereof was streak-smeared on the plate media. These streak-smeared plate media was incubated at 37° C. for 18 hours (for bacteria) or at 27° C. for 40 hours (for yeast and mold) and MIC was determined."}, "[4]": {"test_system": "Saccharomyces cerevisiae ATCC 9763", "assay": "MIC by agar dilution", "type": "cell-based", "details": "ATCC9763; Saccharomyces cerevisiae ATCC 9763, 27° C. for 40 hours", "protocol": "as §1"}, "[5]": {"test_system": "Staphylococcus aureus ATCC 6538P", "assay": "MIC by agar dilution", "type": "cell-based", "details": "ATCC6538P, 37° C. for 18 hours", "protocol": "as §1"}, "[6]": {"test_system": "Penicillium chrysogenam IAM 12842", "assay": "MIC by agar dilution", "type": "cell-based", "details": "IAM12842, 40 h", "protocol": "as §1"}, "[7]": {"test_system": "Mycobaderium smegmatis ATCC 607", "assay": "MIC by agar dilution", "type": "cell-based", "details": "18 h", "protocol": "as §1"}, "[8]": {"test_system": "Micrococcus luteus ATCC 9341", "assay": "MIC by agar dilution", "type": "cell-based", "details": "ATCC9341; Micrococcus luteus ATCC 9341, 37° C. for 18 hours", "protocol": "as §1"}, "[9]": {"test_system": "Escherichia coli NIHJ", "assay": "MIC by agar dilution", "type": "cell-based", "details": "37° C. for 18 hours", "protocol": "as §1"}, "[10]": {"test_system": "Serratia marcescens IAM 1021", "assay": "MIC by agar dilution", "type": "cell-based", "details": "IAM1021; Serratia marcescens IAM 1021, 37° C. for 18 hours", "protocol": "as §1"}, "[11]": {"test_system": "Bacillus subtilis ATCC 6633", "assay": "MIC by agar dilution", "type": "cell-based", "details": "ATCC6633; Bacillus subtilis ATCC 6633, 37° C. for 18 hours", "protocol": "as §1"}, "[12]": {"test_system": "Pseudomonas aeruginosa IFO 3080", "assay": "MIC by agar dilution", "type": "cell-based", "details": "IFO3080; Pseudomonas aeruginosa IFO 3080, 37° C. for 18 hours", "protocol": "as §1"}, "[13]": {"test_system": "MRSA K24", "assay": "MIC by agar dilution", "type": "cell-based", "details": "Staphylococcus aureus, 18 h", "protocol": "as §1"}, "[14]": {"test_system": "Klebsiella pneumoniae ATCC 10031", "assay": "MIC by agar dilution", "type": "cell-based", "details": "ATCC10031; Klebsiella pneumoniae ATCC 10031, 37° C. for 18 hours", "protocol": "as §1"}, "[15]": {"test_system": "Aspergillus niger ATCC 9642", "assay": "MIC by agar dilution", "type": "cell-based", "details": "ATCC9642; Aspergillus niger ATCC 9642, 27° C. for 40 hours", "protocol": "as §1"}, "[16]": {"test_system": "Candida albicans ATCC 64550", "assay": "MIC by agar dilution", "type": "cell-based", "details": "ATCC64550, 40 h", "protocol": "as §1"}, "[17]": {"details": "methanol, ethanol, acetonitrile, ethyl acetate, chloroform and dimethylsulfoxide"}},
  "note": "Where two headings read alike, the source gives them in different places.",
  "data": [
    {"molecule": "COc1cc(O)c2c(O)c3c(c4c2c1C1(C4)C(C)=CCCC1(C)C)C(O)C1(O)CC(O)=C(C(N)=O)C(=O)C1(O)C3=O", "note": "(centres unmarked) [FKI-3368-1]", "values": [
      {"measurement": "IC50", "setting": "[1]; cell-free extract of transformed E. Coli as enzyme source, 37° C., 20 minutes, read-out: concentration at which the undecaprenyl diphosphate synthase activity was inhibited to 50% (IC50)", "value": 4, "unit": "µM"},
      {"measurement": "Solubility in solvents", "setting": "[2]; [17]", "value": "Soluble"},
      {"measurement": "Solubility in solvents", "setting": "[2]; water", "value": "indissoluble"},
      {"measurement": "MIC", "setting": "[3]", "value": 25, "unit": "µg/mL"},
      {"measurement": "MIC", "setting": "[4]", "value": 12.5, "unit": "µg/mL"},
      {"measurement": "MIC", "setting": "[5]", "value": 0.78, "unit": "µg/mL"},
      {"measurement": "MIC", "setting": "[6]", "value": 6.25, "unit": "µg/mL"},
      {"measurement": "MIC", "setting": "[7]", "value": "> 100", "unit": "µg/mL"},
      {"measurement": "MIC", "setting": "[8]", "value": 1.56, "unit": "µg/mL"},
      {"measurement": "MIC", "setting": "[9]", "value": "> 100", "unit": "µg/mL"},
      {"measurement": "MIC", "setting": "[10]", "value": "> 100", "unit": "µg/mL"},
      {"measurement": "MIC", "setting": "[11]", "value": 0.4, "unit": "µg/mL"},
      {"measurement": "MIC", "setting": "[12]", "value": "> 100", "unit": "µg/mL"},
      {"measurement": "MIC", "setting": "[13]", "value": 0.78, "unit": "µg/mL"},
      {"measurement": "MIC", "setting": "[14]", "value": "> 100", "unit": "µg/mL"},
      {"measurement": "MIC", "setting": "[15]", "value": 12.5, "unit": "µg/mL"},
      {"measurement": "MIC", "setting": "[16]", "value": 6.25, "unit": "µg/mL"}
    ]},
    {"molecule": "COc1cc(O)c2c(O)c3c(c4c2c1C1(C4)C(C)=CCCC1(C)C)C(O)C1(O)CC(O)=C(C(C)=O)C(=O)C1(O)C3=O", "note": "(centres unmarked) [FKI-3368-2]", "values": [
      {"measurement": "IC50", "setting": "[1]", "value": 10, "unit": "µM"},
      {"measurement": "Solubility in solvents", "setting": "[2]; [17]", "value": "Soluble"},
      {"measurement": "Solubility in solvents", "setting": "[2]; water", "value": "indissoluble"}
    ]}
  ]
}
